Results taken from patent US20260262643A1, “HERBICIDAL BENZOXAZINES” (FMC CORPORATION, priority 2022, published 2026).

How the values were obtained:
barnyardgrass [1] = test: Test C preemergence; format: in vivo, Echinochloa crusgalli
Method in brief: (§1)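 Greenhouse herbicide screen, 10-day duration. Test chemicals in solvent/surfactant blend were sprayed onto soil at sowing (pre) or onto 2–10 cm seedlings at one to two leaves (post); injury scored visually against controls, 0 no effect to 100 complete control.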

blackgrass [2] = test: Test C preemergence; format: in vivo, Alopecurus myosuroides
Method in brief: as §1

corn [3] = test: Test C preemergence; format: in vivo, Zea mays
Method in brief: as §1

foxtail, giant [4] = test: Test C preemergence; format: in vivo, Setaria faberi
Method in brief: as §1

kochia [5] = test: Test C preemergence; format: in vivo, Bassia scoparia
Method in brief: as §1

oat, wild [6] = test: Test C preemergence; format: in vivo, Avena fatua
Method in brief: as §1

pigweed, palmer [7] = test: Test C preemergence; format: in vivo, Amaranthus palmeri
Method in brief: as §1

ragweed [8] = test: Test C preemergence; format: in vivo, Ambrosia artemisiifolia
Method in brief: as §1

ryegrass, Italian [9] = test: Test C preemergence; format: in vivo, Lolium multiflorum
Method in brief: as §1

soybean [10] = test: Test C preemergence; format: in vivo, Glycine max
Method in brief: as §1

wheat [11] = test: Test C preemergence; format: in vivo, Triticum aestivum
Method in brief: as §1

barnyardgrass [12] = test: Test C postemergence; format: in vivo, Echinochloa crusgalli; details: 10 days, 0 to 100 scale (0 no effect, 100 complete control)
Method in brief: as §1

blackgrass [13] = test: Test C postemergence; format: in vivo, Alopecurus myosuroides; details: 10 days, 0 to 100 scale (0 no effect, 100 complete control)
Method in brief: as §1

corn [14] = test: Test C postemergence; format: in vivo, Zea mays; details: 10 days, 0 to 100 scale (0 no effect, 100 complete control)
Method in brief: as §1

foxtail, giant [15] = test: Test C postemergence; format: in vivo, Setaria faberi; details: 10 days, 0 to 100 scale (0 no effect, 100 complete control)
Method in brief: as §1

kochia [16] = test: Test C postemergence; format: in vivo, Bassia scoparia; details: 10 days, 0 to 100 scale (0 no effect, 100 complete control)
Method in brief: as §1

oat, wild [17] = test: Test C postemergence; format: in vivo, Avena fatua; details: 10 days, 0 to 100 scale (0 no effect, 100 complete control)
Method in brief: as §1

pigweed, palmer [18] = test: Test C postemergence; format: in vivo, Amaranthus palmeri; details: 10 days, 0 to 100 scale (0 no effect, 100 complete control)
Method in brief: as §1

ragweed [19] = test: Test C postemergence; format: in vivo, Ambrosia artemisiifolia; details: 10 days, 0 to 100 scale (0 no effect, 100 complete control)
Method in brief: as §1

ryegrass, Italian [20] = test: Test C postemergence; format: in vivo, Lolium multiflorum; details: 10 days, 0 to 100 scale (0 no effect, 100 complete control)
Method in brief: as §1

soybean [21] = test: Test C postemergence; format: in vivo, Glycine max; details: 10 days, 0 to 100 scale (0 no effect, 100 complete control)
Method in brief: as §1

wheat [22] = test: Test C postemergence; format: in vivo, Triticum aestivum; details: 10 days, 0 to 100 scale (0 no effect, 100 complete control)
Method in brief: as §1

galium = test: Test C postemergence; format: in vivo, Galium aparine; details: 10 days, 0 to 100 scale (0 no effect, 100 complete control)
Method in brief: as §1

horseweed = test: Test C postemergence; format: in vivo, Erigeron canadensis; details: 10 days, 0 to 100 scale (0 no effect, 100 complete control)
Method in brief: as §1

barnyardgrass [23] = test: Test D flooded paddy test; format: in vivo, Echinochloa crus-galli; details: 250 g ai/ha, applied to paddy water, visual rating after 13 to 14 days, scale 0 to 100 (0 no effect, 100 complete control)
Method in brief: (§2)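 Visual ratings from 0, meaning no effect, to 100, meaning complete control, were assigned against untreated controls 13 to 14 days after compounds were added to the floodwater of pots kept 3 cm deep, with plants at the 2-leaf stage.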

ducksalad = test: Test D flooded paddy test; format: in vivo, Heteranthera limosa; details: 250 g ai/ha, applied to paddy water, visual rating after 13 to 14 days, scale 0 to 100 (0 no effect, 100 complete control)
Method in brief: as §2

rice = test: Test D flooded paddy test; format: in vivo, Oryza sativa; details: 250 g ai/ha, applied to paddy water, visual rating after 13 to 14 days, scale 0 to 100 (0 no effect, 100 complete control)
Method in brief: as §2

sedge, umbrella = test: Test D flooded paddy test; format: in vivo, Cyperus difformis; details: 250 g ai/ha, applied to paddy water, visual rating after 13 to 14 days, scale 0 to 100 (0 no effect, 100 complete control)
Method in brief: as §2

[24] = 500 g ai/ha, preemergence, 0 to 100 scale (0 no effect, 100 complete control)
[25] = Preemergence, 125 g ai/ha, 0 to 100 scale, 0 no effect, 100 complete control

## CCc1ncn(-c2cc(C(=O)N3CC(C(F)(F)F)Oc4c(Cl)cccc43)ccn2)n1 (racemic) [Compound 334]
Barnyardgrass [1]; [24]
  Barnyardgrass plant response rating: 100
Barnyardgrass [1]; [25]
  Plant response rating, Barnyardgrass: 60
Blackgrass [2]; [24]
  Blackgrass plant response rating: 90
Blackgrass [2]; [25]
  Plant response rating, Blackgrass: 80
Corn [3]; [24]
  Corn plant response rating: 50
Corn [3]; [25]
  Plant response rating, Corn: 0
foxtail, giant [4]; [24]
  Foxtail, Giant plant response rating: 100
foxtail, giant [4]; [25]
  Plant response rating, Foxtail, Giant: 90
Kochia [5]; [24]
  Kochia plant response rating: 80
Kochia [5]; [25]
  Plant response rating, Kochia: 40
oat, wild [6]; [24]
  Oat, Wild plant response rating: 30
oat, wild [6]; [25]
  Plant response rating, Oat, Wild: 0
pigweed, palmer [7]; [24]
  Pigweed, Palmer plant response rating: 100
pigweed, palmer [7]; [25]
  Plant response rating, Pigweed, Palmer: 90
Ragweed [8]; [24]
  Ragweed plant response rating: 30
Ragweed [8]; [25]
  Plant response rating, Ragweed: 0
ryegrass, Italian [9]; [24]
  Ryegrass, Italian plant response rating: 90
ryegrass, Italian [9]; [25]
  Plant response rating, Ryegrass, Italian: 70
Soybean [10]; [24]
  Soybean plant response rating: 60
Soybean [10]; [25]
  Plant response rating, Soybean: 0
Wheat [11]; [24]
  Wheat plant response rating: 20
Wheat [11]; [25]
  Plant response rating, Wheat: 0
Barnyardgrass [12]; 500 g ai/ha, postemergence
  Plant response rating, Barnyardgrass: 90
Barnyardgrass [12]; Postemergence, 125 g ai/ha
  Plant response rating, Barnyardgrass: 20
Blackgrass [13]; 500 g ai/ha, postemergence
  Plant response rating, Blackgrass: 80
Blackgrass [13]; Postemergence, 125 g ai/ha
  Plant response rating, Blackgrass: 40
Corn [14]; 500 g ai/ha, postemergence
  Plant response rating, Corn: 90
Corn [14]; Postemergence, 125 g ai/ha
  Plant response rating, Corn: 40
foxtail, giant [15]; 500 g ai/ha, postemergence
  Plant response rating, Foxtail, Giant: 90
foxtail, giant [15]; Postemergence, 125 g ai/ha
  Plant response rating, Foxtail, Giant: 70
Kochia [16]; 500 g ai/ha, postemergence
  Plant response rating, Kochia: 80
Kochia [16]; Postemergence, 125 g ai/ha
  Plant response rating, Kochia: 80
oat, wild [17]; 500 g ai/ha, postemergence
  Plant response rating, Oat, Wild: 40
oat, wild [17]; Postemergence, 125 g ai/ha
  Plant response rating, Oat, Wild: 10
pigweed, palmer [18]; 500 g ai/ha, postemergence
  Plant response rating, Pigweed, Palmer: 50
pigweed, palmer [18]; Postemergence, 125 g ai/ha
  Plant response rating, Pigweed, Palmer: 30
Ragweed [19]; 500 g ai/ha, postemergence
  Plant response rating, Ragweed: 60
Ragweed [19]; Postemergence, 125 g ai/ha
  Plant response rating, Ragweed: 0
ryegrass, Italian [20]; 500 g ai/ha, postemergence
  Plant response rating, Ryegrass, Italian: 70
ryegrass, Italian [20]; Postemergence, 125 g ai/ha
  Plant response rating, Ryegrass, Italian: 50
Soybean [21]; 500 g ai/ha, postemergence
  Plant response rating, Soybean: 100
Soybean [21]; Postemergence, 125 g ai/ha
  Plant response rating, Soybean: 100
Wheat [22]; 500 g ai/ha, postemergence
  Plant response rating, Wheat: 50
Wheat [22]; Postemergence, 125 g ai/ha
  Plant response rating, Wheat: 20
galium; 500 g ai/ha, postemergence
  Plant response rating, Galium: 100
galium; Postemergence, 125 g ai/ha
  Plant response rating, Galium: 100
horseweed; 500 g ai/ha, postemergence
  Plant response rating, Horseweed: 40
horseweed; Postemergence, 125 g ai/ha
  Plant response rating, Horseweed: 0
Barnyardgrass [23]
  Plant response rating, Barnyardgrass (Flood): 10
ducksalad
  Plant response rating, Ducksalad (Flood): 30
rice
  Plant response rating, Rice (Flood): 0
sedge, umbrella
  Plant response rating, Sedge, Umbrella (Flood): 70
